In assay [1] the test system is U-87 MG. Briefly: Antiproliferative activity against human U87 cells at 10 uM after 48 hrs by MTT assay relative to control. The assay is classed as functional, U-87MG ATCC. In general terms: Formazan colour is commonly taken as a measure of viable cells.
Assay [2] relates to C6. The assay is described as follows: Antiproliferative activity against rat C6 cells at 10 uM after 48 hrs by MTT assay relative to control. The assay is classed as functional.
Assay [3] relates to U-87 MG. The assay is described as follows: Induction of apoptosis in human U87 cells assessed as increase in caspase3 expression by Western blot analysis. Format: functional, cell-based. Particulars: U-87MG ATCC. (In general: Immunoblotting shows a protein as a band on a membrane.)
Assay [4] deals with U-87 MG. Briefly: Cell cycle arrest in human U87 cells assessed as accumulation of cells at G0/G1 phase at 50 uM after 48 hrs by propidium iodide staining-based flow cytometric analysis (reference value: 71.7%). The assay is classed as functional, U-87MG ATCC. On the technique in general: A flow cytometer gives signals particle by particle.
The subject of assay [5] is U-87 MG. The assay is described as follows: Cell cycle arrest in human U87 cells assessed as accumulation of cells at S phase at 10 uM after 48 hrs by propidium iodide staining-based flow cytometric analysis (reference value: 8.95%). Format: functional, U-87MG ATCC.
The subject of assay [6] is U-87 MG. Briefly: Cell cycle arrest in human U87 cells assessed as accumulation of cells at G0/G1 phase at 10 uM after 48 hrs by propidium iodide staining-based flow cytometric analysis (reference value: 71.7%). Format: functional, U-87MG ATCC.
The subject of assay [7] is U-87 MG. The assay is described as follows: Cell cycle arrest in human U87 cells assessed as accumulation of cells at G2/M phase at 25 uM after 48 hrs by propidium iodide staining-based flow cytometric analysis (reference value: 19.4%). The assay is classed as functional, U-87MG ATCC.
Assay [8] deals with U-87 MG. Briefly: Induction of apoptosis in human U87 cells after 48 hrs by propidium iodide staining-based flow cytometric analysis. The note with it: U-87MG ATCC. The assay is classed as functional, cell-based.
Assay [9] concerns U-87 MG. Briefly: Cell cycle arrest in human U87 cells assessed as accumulation of cells at S phase at 50 uM after 48 hrs by propidium iodide staining-based flow cytometric analysis (reference value: 8.95%). Format: functional, U-87MG ATCC.
For assay [10], the system named is U-87 MG. Briefly: Cell cycle arrest in human U87 cells assessed as accumulation of cells at G0/G1 phase at 25 uM after 48 hrs by propidium iodide staining-based flow cytometric analysis (reference value: 71.7%). The assay is classed as functional, U-87MG ATCC.
The subject of assay [11] is U-87 MG. The assay is described as follows: Antiproliferative activity against human U87 cells after 48 hrs by MTT assay. Format: functional, cell-based. The note with it: U-87MG ATCC.
The subject of assay [12] is U-87 MG. The assay is described as follows: Induction of apoptosis in human U87 cells assessed as increase in cleaved PARP levels by Western blot analysis. Particulars: U-87MG ATCC. The assay is classed as functional, cell-based.
Assay [13] has as its system C6. Briefly: Antiproliferative activity against rat C6 cells after 48 hrs by MTT assay. Format: functional, cell-based.
Assay [14] concerns U-87 MG. Briefly: Induction of apoptosis in human U87 cells assessed as increase in p53 levels by Western blot analysis. Format: functional, cell-based. Particulars: U-87MG ATCC.
Assay [15] relates to U-87 MG. Briefly: Cell cycle arrest in human U87 cells assessed as accumulation of cells at G2/M phase at 50 uM after 48 hrs by propidium iodide staining-based flow cytometric analysis (reference value: 19.4%). The assay is classed as functional, U-87MG ATCC.
Assay [16] deals with U-87 MG. The assay is described as follows: Cell cycle arrest in human U87 cells assessed as accumulation of cells at G2/M phase at 10 uM after 48 hrs by propidium iodide staining-based flow cytometric analysis (reference value: 19.4%). The assay is classed as functional, U-87MG ATCC.
Assay [17] concerns U-87 MG. Briefly: Cell cycle arrest in human U87 cells assessed as accumulation of cells at S phase at 25 uM after 48 hrs by propidium iodide staining-based flow cytometric analysis (reference value: 8.95%). The assay is classed as functional, U-87MG ATCC.

The text below walks through data of ChEMBL document CHEMBL4270550, “Synthesis of pyrazolo[3,4-d]pyrimidin-4(5H)-ones tethered to 1,2,3-triazoles and their evaluation as potential anticancer agents” (2018).

Regarding `Cc1cccc(-n2cc(Cn3cnc4c(cnn4-c4ccc(Cl)cc4)c3=O)nn2)c1C`, the Activity in the assay with U-87 MG [1] is 54.42%; in the assay on C6 [2] it was 35.91%.

As for `O=c1c2cnn(-c3ccccc3)c2ncn1Cc1cn(-c2ccccc2)nn1`, the Activity with U-87 MG [1] amounted to 52.34%; in the assay on C6 [2], 34.1%.

Turning to `COc1ccccc1-n1cc(Cn2cnc3c(cnn3-c3ccccc3)c2=O)nn1`, the figures for the Activity in the assay with U-87 MG [1] and with C6 [2] were 15.7% and 4.91%, respectively.

For the compound `Cc1ccc(-n2cc(Cn3cnc4c(cnn4-c4ccccc4)c3=O)nn2)cc1`, the Activity with U-87 MG [1] amounted to 41.62%; with C6 [2], 16.87%.

As for `COc1ccccc1-n1cc(Cn2cnc3c(cnn3-c3ccc(Cl)cc3)c2=O)nn1`, the Activity in the assay with U-87 MG [1] stood at 32.98%; with C6 [2], 16.37%.

The compound `O=c1c2cnn(-c3ccc(Cl)cc3)c2ncn1Cc1cn(-c2ccccc2F)nn1` returned an Activity with U-87 MG [1] of 21.31%.

Turning to `O=c1c2cnn(-c3ccc(Cl)cc3)c2ncn1Cc1cn(-c2cccc(Cl)c2)nn1`, the values for the Activity in the assay with U-87 MG [1] and with C6 [2] were 47.29% and 9.55%, respectively.

Turning to `O=c1c2cnn(-c3ccccc3)c2ncn1Cc1cn(-c2cccc(Cl)c2)nn1`, the Activity with U-87 MG [1] was 47.69%; in the assay on U-87 MG [3] it was “Dose-dependent effect”; in the assay with U-87 MG [4] it was 62.6%; in the assay on U-87 MG [5], 14.18%; in the assay on U-87 MG [6] it was 73.3%; with C6 [2], 17.87%. In addition, the Activity was 2.03% in the assay with U-87 MG [7]; “Dose-dependent effect” in the assay with U-87 MG [8]; 37.4% in the assay with U-87 MG [9]; 80.8% in the assay on U-87 MG [10]; “Dose-dependent effect” in the assay with U-87 MG [11]; “Dose-dependent effect” in the assay on U-87 MG [12]. Besides, the Activity entry in the assay on C6 [13] is “Dose-dependent effect”; in the assay with U-87 MG [14], “Dose-dependent effect”; with U-87 MG [15], 0.08%; in the assay with U-87 MG [16] it was 12.52%; with U-87 MG [17], 17.13%.

`Cc1cccc(-n2cc(Cn3cnc4c(cnn4-c4ccccc4)c3=O)nn2)c1C` registered an Activity in the assay with U-87 MG [1] of 40.6%.

Take `Cc1ccccc1-n1cc(Cn2cnc3c(cnn3-c3ccccc3)c2=O)nn1`: the Activity in the assay on U-87 MG [1] is given as 21.32%; in the assay with C6 [2], 13.64%.

On to `O=c1c2cnn(-c3ccccc3)c2ncn1Cc1cn(-c2ccccc2F)nn1`, for which, in the assay with U-87 MG [1], the Activity is on record as 46.35%.

In the assay with U-87 MG [1], `O=c1c2cnn(-c3ccc(Cl)cc3)c2ncn1Cc1cn(-c2ccccc2)nn1` showed an Activity of 40.98%.
